In patent US20240091242A1, “LIPIDS THAT REDUCE LUNG DAMAGE, IMPROVE PULMONARY FUNCTION AND DECREASE PRO-INFLAMMATORY CYTOKINES” (Signpath Pharma, Inc., priority 2021, published 2024):

Tested on: pro-inflammatory cytokines in the BALF
Assay: Multiplex analysis of cytokine levels in BALF, murine LPS ARDS model
Format: in vivo, mouse
Conditions: for IL1-alpha level in BALF / IP-10 level in BALF / MIG level in BALF: in pg/mL (unit assumed)
Text: C57B16/N mice were obtained from Charles River Laboratories (Montreal, Quebec). Male mice, 20-25 g of body weight, were used throughout the studies. Animals were housed in specific pathogen[…]free conditions, and all experiments were approved by Institutional Animal Care and Use Committee (IPST_SL20200402-1). Animal studies are reported in compliance with […] guidelines.
All delivered mice were kept for one week as an acclimatization period prior to performing any experiments. Animals were housed in a maximum of two mice per cage under a 12[…]h light/12[…]h dark cycle at a temperature of ˜20-22° C. and 40-60% humidity. Food and water were available ad libitum. Each cage of mice was blindly assigned for different treatments or maintained as a control group according to the experimental design. The individual who carried out the experiments was not blinded as to treatment, but data analysis and experiments were otherwise blinded to avoid any bias.
In the ARDS group, mice received Escherichia coli O111:B4 lipopolysaccharide (50 μg in 0.05 mL saline, i.t.), while, in the control group, the animals received an instillation of saline (0.05 mL, i.t.). For intratracheal instillation, mice were slightly anesthetized with isoflurane.
The lipid SPPCT-800 was dissolved in water (low dose—2 mg/ml; high dose—20 mg/ml). For the 24-hour study, two treatment approaches were used. Mice received a single dose of SPPCT-800 (200 mg/kg, per gavage) as prevention (30 minutes before the LPS instillation), or as a single dose of either 20 mg/kg or 200 mg/kg as therapy (3-hour after the LPS instillation). For the 72-hour study, mice received a total of 8 treatments of SPPCT-800 (200 mg/kg) starting at 3-hour after the LPS instillation. Disease progression in mice was assessed by the evaluation of pulmonary functions, blood oxygen saturation, and body weight change. On the terminal day of each study (24 hours or 72 hours), measurement of cytokine levels in the plasma and BALF, and histopathology evaluations were done.
Differential Cell Counts in BALF. The left lung was clamped while 0.9 mL of cold PBS 1×, Protease Inhibitor 1× (SigmaFast®) solution (3×300 μL) was injected so bronchoalveolar lavage fluid (BALF) from the right lobe of the lungs could be collected. The protein assay was performed according to the manufacturer's instruction BCA Protein Assay (Pierce™-#23227). Briefly, a dilution factor of 5 was used (1 part of BALF: 4 part of PBS 1×). 10 μL, of the diluted sample was added into the microplate wells. 200 μL of the working reagent was added into each well. The plate was covered, incubated at 37° C. for 30 minutes. After a cool-down period, the absorbance at 562 nm was rapidly measured using a monochromatic spectrophotometer (SpectraMAX ® plus—Molecular Devices). The total BALF protein content was reported by multiplying the protein concentration by the dilution factor, and then multiplying by the total of BALF volume collected.
Multiplex analysis of mediators. The inventors quantified 31 different mediators in the BALF and plasma by using a Discovery Assay® (Mouse Cytokine and Chemokine Array 31-Plex (MD31), Eve Technologies Corp, Calgary, AB, Canada). The multiplex assay was performed at Eve Technologies using the Bio-Plex™ 200 system (Bio-Rad Laboratories, Inc., Hercules, CA, USA) and a Milliplex Mouse Cytokine/Chemokine kit (Millipore, St. Charles, MO, USA) according to Eve Tech protocol. The 31-plex consisted of Eotaxin, G-CSF, GM-CSF, IFN-γ, IL-1α, IL-1β, IL-2, IL-3, IL-4, IL-5, IL-6, IL-7, IL-9, IL-10, IL-12 (p40), IL-12 (p70), IL-13, IL-15, IL-17, IP-10, KC, LIF, MCP-1, M-CSF, MIG, MIP-1α, MIP-1β, MIP-2,RANTES, TNFα, and VEGF. The assay sensitivities of these markers range from 0.1 pg/mL to 33.3 pg/mL. Individual analytes' values and other assay details are available on Eve Technologies' website and in the Milliplex protocol.
Statistical Analysis. Results are expressed as means±SEM. […]

[1] = 24-hours, Pre: SPP4040 30 minutes before LPS
[2] = 24-hours, Thera: SPP4040 3 hours after LPS
[3] = 72-hours, Thera: eight SPP4040 injections over 72 hours after LPS

CCCCCCCCCCCCCC(=O)OCC(COP(=O)([O-])OCC(COC(=O)CCC)OC(=O)CCC)OC(=O)CCCCCCCCCCCCC.CCCCCCCCCCCCCC(=O)OCC(COP(=O)([O-])OCC(COC(=O)CCC)OC(=O)CCC)OC(=O)CCCCCCCCCCCCC.[Mg+2] (stereo not shown) [SPPCT-800]
Eotaxin level in BALF [1]: 10 ± 1
G-CSF level in BALF [1]: 6468 ± 381
GM-CSF level in BALF [1]: 26 ± 5
IFN gamma level in BALF [1]: 2 ± 1
IL1-beta level in BALF [1]: 69 ± 9
IL2 level in BALF [1]: 1.5 ± 0.2
IL3 level in BALF [1]: 0.4 ± 0.1
IL4 level in BALF [1]: 0.08 ± 0.01
IL5 level in BALF [1]: 10 ± 3
IL6 level in BALF [1]: 856 ± 188
IL7 level in BALF [1]: 1.7 ± 0.3
IL9 level in BALF [1]: 7.0 ± 0.3
IL10 level in BALF [1]: 1.4 ± 0.3
IL12 (p40) level in BALF [1]: 1.6 ± 0.3
IL12 (p70) level in BALF [1]: 7.4 ± 1.0
IL13 level in BALF [1]: 0.7 ± 0.1
IL15 level in BALF [1]: 5.1 ± 0.8
IL17 level in BALF [1]: 8.3 ± 3.2
KC level in BALF [1]: 622 ± 89
LIF level in BALF [1]: 38 ± 8
LIX level in BALF [1]: 94 ± 6
M-CSF level in BALF [1]: 21 ± 3
MCP-1 level in BALF [1]: 462 ± 103
MIP-1alpha level in BALF [1]: 323 ± 52
MIP-1beta level in BALF [1]: 801 ± 208
MIP-2 level in BALF [1]: 771 ± 107
RANTES level in BALF [1]: 45 ± 6
TNF-alpha level in BALF [1]: 91 ± 32
VEGF level in BALF [1]: 33 ± 2
IL1-alpha level in BALF [1]: 183 ± 25
IP-10 level in BALF [1]: 125 ± 10
MIG level in BALF [1]: 6.8 ± 1.5
Eotaxin level in BALF [2]: 14 ± 3
G-CSF level in BALF [2]: 7060 ± 853
GM-CSF level in BALF [2]: 46 ± 9
IFN gamma level in BALF [2]: 3 ± 1
IL1-beta level in BALF [2]: 103 ± 18
IL2 level in BALF [2]: 1.5 ± 0.3
IL3 level in BALF [2]: 0.5 ± 0.1
IL4 level in BALF [2]: 0.10 ± 0.01
IL5 level in BALF [2]: 10 ± 2
IL6 level in BALF [2]: 850 ± 212
IL7 level in BALF [2]: 1.7 ± 0.2
IL9 level in BALF [2]: 8.8 ± 1.3
IL10 level in BALF [2]: 1.4 ± 0.3
IL12 (p40) level in BALF [2]: 2.0 ± 0.3
IL12 (p70) level in BALF [2]: 6.0 ± 1.0
IL13 level in BALF [2]: 1.1 ± 0.2
IL15 level in BALF [2]: 3.1 ± 0.7
IL17 level in BALF [2]: 13.6 ± 5.6
KC level in BALF [2]: 1017 ± 140
LIF level in BALF [2]: 39 ± 12
LIX level in BALF [2]: 67 ± 20
M-CSF level in BALF [2]: 27 ± 6
MCP-1 level in BALF [2]: 494 ± 103
MIP-1alpha level in BALF [2]: 564 ± 132
MIP-1beta level in BALF [2]: 1924 ± 812
MIP-2 level in BALF [2]: 1054 ± 106
RANTES level in BALF [2]: 46 ± 6
TNF-alpha level in BALF [2]: 153 ± 32
VEGF level in BALF [2]: 34 ± 2
IL1-alpha level in BALF [2]: 331 ± 67
IP-10 level in BALF [2]: 163 ± 33
MIG level in BALF [2]: 6.6 ± 2.0
TNF-α levels in the BALF (in words) (72-hour study, p=0.0613): markedly reduced
Eotaxin level in BALF [3]: 6 ± 2
G-CSF level in BALF [3]: 1233 ± 572
GM-CSF level in BALF [3]: 9 ± 1
IFN gamma level in BALF [3]: 12 ± 1
IL1-beta level in BALF [3]: 89 ± 24
IL2 level in BALF [3]: 1.7 ± 0.4
IL3 level in BALF [3]: 0.5 ± 0.2
IL4 level in BALF [3]: 0.24 ± 0.05
IL5 level in BALF [3]: 0.4 ± 0.1
IL6 level in BALF [3]: 276 ± 151
IL7 level in BALF [3]: 2.0 ± 0.5
IL9 level in BALF [3]: 8.5 ± 1.6
IL10 level in BALF [3]: 1.1 ± 0.5
IL12 (p40) level in BALF [3]: 6.0 ± 1.2
IL12 (p70) level in BALF [3]: 15.7 ± 3.9
IL13 level in BALF [3]: 1.1 ± 0.2
IL15 level in BALF [3]: 4.8 ± 2.6
IL17 level in BALF [3]: 53.2 ± 26.9
KC level in BALF [3]: 216 ± 15
LIF level in BALF [3]: 11 ± 7
LIX level in BALF [3]: 25 ± 18
M-CSF level in BALF [3]: 11 ± 1
MCP-1 level in BALF [3]: 84 ± 34
MIP-1alpha level in BALF [3]: 1676 ± 554
MIP-1beta level in BALF [3]: 1561 ± 440
MIP-2 level in BALF [3]: 2649 ± 898
RANTES level in BALF [3]: 57 ± 20
TNF-alpha level in BALF [3]: 62 ± 17
VEGF level in BALF [3]: 11 ± 3
IL1-alpha level in BALF [3]: 576 ± 169
IP-10 level in BALF [3]: 1583 ± 385
MIG level in BALF [3]: 749.7 ± 186.7
MIP-1α and MIP 1-β in the BALF (in words) (at 24 hours): Suppressive effects
GM-CSF in the BALF (in words) (at 24 hours, 200 mg/kg preventive, 20 mg/kg therapeutic and 200 mg/kg therapeutic, P<0.001): highly significant depressions
IFN-γ levels in the BALF (in words) (at 24 hours, P<0.001): profoundly depressed
TNF-α in the BALF (in words) (at 24 hours, P=0.0959): markedly reduced
IL-1β, IL-2, IL-3, IL-4, IL-5, IL-7, IL-9, IL-10, IL-12 (p40), IL-12 (p70), IL-13 and IL-15 in the BALF (in words) (at 24 hours, with the exception of IL-6): major reductions
IFN-γ levels in the BALF (in words) (at 72 hours): Large reductions
MCP-1 in the BALF (in words) (at 72 hours): inhibited
GM-CSF in the BALF (in words) (at 72 hours, P<0.001): significant decreases
G-CSF, VEGF, KC, LIF, LIX and M-CSF in the BALF (in words) (mouse, in vivo): suppressed
